Measurements published in paper PMC9080233, “Synthesis and biological evaluation of novel quinolone derivatives dual targeting histone deacetylase and tubulin polymerization as antiproliferative agents” (RSC Advances, 2018).
Like-named read-outs stand apart in the source and are kept apart here.

Legend:
human recombinant HDAC6 = target: T1, human recombinant HDAC6 (Homo sapiens, UniProt Q9UBN7); test: HDAC activity assay (fluorogenic HDAC assay kit), HDAC6; format: biochemical; details: for IC50: human recombinant HDAC6, 37 °C, 30 min; for Selectivity index HDAC6/1: ratio of IC50 HDAC1 to IC50 HDAC6; for Selectivity index HDAC6/2: ratio of IC50 HDAC2 to IC50 HDAC6;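 for all read-outs here: underlying HDAC activity read as fluorescence, excitation 350 nm and emission 440 nm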
T1 construct: purchased BPS Bioscience, CA
T1 sequence (Q9UBN7 1-1215): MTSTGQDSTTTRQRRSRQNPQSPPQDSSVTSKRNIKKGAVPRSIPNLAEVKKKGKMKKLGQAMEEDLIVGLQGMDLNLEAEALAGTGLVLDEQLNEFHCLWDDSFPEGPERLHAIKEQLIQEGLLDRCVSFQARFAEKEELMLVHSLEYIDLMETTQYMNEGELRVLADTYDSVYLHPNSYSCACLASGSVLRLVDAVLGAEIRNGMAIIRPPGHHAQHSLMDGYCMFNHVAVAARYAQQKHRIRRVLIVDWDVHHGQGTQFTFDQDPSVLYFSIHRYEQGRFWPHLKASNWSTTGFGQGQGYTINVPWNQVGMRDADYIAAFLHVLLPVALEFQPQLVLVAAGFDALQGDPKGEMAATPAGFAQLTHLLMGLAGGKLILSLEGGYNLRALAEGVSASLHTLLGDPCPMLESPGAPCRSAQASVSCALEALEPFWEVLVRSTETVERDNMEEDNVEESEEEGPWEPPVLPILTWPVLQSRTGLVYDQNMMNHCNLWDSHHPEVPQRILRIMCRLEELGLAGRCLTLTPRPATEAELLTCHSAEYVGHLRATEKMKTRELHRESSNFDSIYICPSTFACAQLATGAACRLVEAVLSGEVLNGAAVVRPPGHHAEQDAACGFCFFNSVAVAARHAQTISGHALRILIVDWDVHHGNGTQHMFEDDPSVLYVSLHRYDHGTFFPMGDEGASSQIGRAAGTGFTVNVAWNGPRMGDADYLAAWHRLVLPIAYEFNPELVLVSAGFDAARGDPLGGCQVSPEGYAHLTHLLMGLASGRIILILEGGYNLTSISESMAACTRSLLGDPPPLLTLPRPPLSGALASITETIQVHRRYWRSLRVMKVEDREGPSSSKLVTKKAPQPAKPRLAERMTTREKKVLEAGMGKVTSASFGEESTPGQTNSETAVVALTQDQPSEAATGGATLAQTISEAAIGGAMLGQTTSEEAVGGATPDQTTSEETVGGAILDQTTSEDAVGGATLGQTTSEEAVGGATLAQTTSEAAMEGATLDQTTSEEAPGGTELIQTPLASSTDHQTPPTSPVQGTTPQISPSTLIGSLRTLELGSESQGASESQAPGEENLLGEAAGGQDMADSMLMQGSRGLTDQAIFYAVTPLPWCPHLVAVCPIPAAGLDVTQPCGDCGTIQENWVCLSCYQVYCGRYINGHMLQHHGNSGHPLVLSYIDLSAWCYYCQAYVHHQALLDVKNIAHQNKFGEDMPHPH

human recombinant HDAC2 = target: T2, human recombinant HDAC2 (Homo sapiens, UniProt Q92769); test: HDAC activity assay (fluorogenic HDAC assay kit), HDAC2; format: biochemical; details: for IC50: human recombinant HDAC2, 37 °C, 30 min
T2 construct: purchased BPS Bioscience, CA

[1] = tested on: breast cancer cells MCF-7; test: Antiproliferative activity, CCK-8 assay, MCF-7; format: cell-based; details: Homo sapiens, MCF7; CCK-8, 72 hours; mean ± SD
human recombinant HDAC1 = target: T3, human recombinant HDAC1 (Homo sapiens, UniProt Q13547); test: HDAC activity assay (fluorogenic HDAC assay kit), HDAC1; format: biochemical; details: for IC50: human recombinant HDAC1, 37 °C, 30 min
T3 construct: purchased BPS Bioscience, CA

[2] = tested on: prostate cancer cells PC-3; test: Antiproliferative activity, CCK-8 assay, PC-3; format: cell-based; details: Homo sapiens; CCK-8, 72 hours; mean ± SD
[3] = tested on: human cervical carcinoma cells HeLa; test: Antiproliferative activity, CCK-8 assay, HeLa; format: cell-based; details: read-out: IC50 HeLa
Method: Antitumor activities in vitro of synthetic compounds were measured using CCK-8 Assay Kit (BPS Bioscience, CA) according to the manufacturer's protocol. Cells were plated into 96-well plates with appropriate test compounds for 72 hours. Control cells were treated with serum free medium. Then CCK-8 solution was added to each well to determine cell viability. The IC50 values were calculated according to the dose-dependent curves (Origin software). IC50 values were determined using nonlinear regression analysis.

[4] = tested on: human lung adenocarcinoma cells A549; test: Antiproliferative activity, CCK-8 assay, A549; format: cell-based; details: CCK-8, 72 hours, mean ± SD
healthy MCF-10A cells = test: Toxicity to healthy cells, CCK-8 assay, MCF-10A; format: cell-based; details: for IC50: Homo sapiens, MCF-10A, healthy cells, CCK-8, 72 hours, >100 = not determinable up to highest concentrations tested
liver cancer cells HepG2 = test: Antiproliferative activity, CCK-8 assay, HepG2; format: cell-based; details: Homo sapiens, CCK-8, 72 hours, mean ± SD
tubulin = test: Tubulin polymerization assay; format: biochemical; details: in words
[5] = amide group of 9c replaced with ester group

T2 sequence (Q92769 whole entry): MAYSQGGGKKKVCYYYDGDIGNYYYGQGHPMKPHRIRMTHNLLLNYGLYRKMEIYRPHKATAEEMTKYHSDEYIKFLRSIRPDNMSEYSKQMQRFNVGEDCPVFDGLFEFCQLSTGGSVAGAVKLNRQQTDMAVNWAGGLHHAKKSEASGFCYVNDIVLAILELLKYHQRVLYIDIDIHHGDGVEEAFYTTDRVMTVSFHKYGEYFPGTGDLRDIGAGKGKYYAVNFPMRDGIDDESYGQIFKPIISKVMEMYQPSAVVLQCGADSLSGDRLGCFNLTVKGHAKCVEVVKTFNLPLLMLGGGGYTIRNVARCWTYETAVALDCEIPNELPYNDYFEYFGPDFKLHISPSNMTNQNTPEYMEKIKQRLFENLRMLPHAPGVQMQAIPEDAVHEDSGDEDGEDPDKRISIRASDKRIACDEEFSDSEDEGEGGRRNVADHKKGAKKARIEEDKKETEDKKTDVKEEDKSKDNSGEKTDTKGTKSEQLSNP
T3 sequence (Q13547 whole entry): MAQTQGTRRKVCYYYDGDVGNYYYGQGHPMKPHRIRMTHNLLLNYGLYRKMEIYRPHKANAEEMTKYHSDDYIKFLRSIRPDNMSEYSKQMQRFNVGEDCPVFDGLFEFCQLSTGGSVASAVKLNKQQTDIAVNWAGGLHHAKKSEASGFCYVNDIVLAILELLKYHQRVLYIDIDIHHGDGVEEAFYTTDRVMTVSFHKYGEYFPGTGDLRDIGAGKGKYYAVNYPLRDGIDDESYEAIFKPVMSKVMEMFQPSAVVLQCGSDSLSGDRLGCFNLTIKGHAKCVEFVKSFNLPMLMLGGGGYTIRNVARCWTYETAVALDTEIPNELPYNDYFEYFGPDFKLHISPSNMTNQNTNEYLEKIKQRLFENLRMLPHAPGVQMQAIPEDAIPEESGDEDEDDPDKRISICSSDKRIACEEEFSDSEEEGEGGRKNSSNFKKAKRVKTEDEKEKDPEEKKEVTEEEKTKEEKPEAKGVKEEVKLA
tubulin, sequence (P02550 whole entry): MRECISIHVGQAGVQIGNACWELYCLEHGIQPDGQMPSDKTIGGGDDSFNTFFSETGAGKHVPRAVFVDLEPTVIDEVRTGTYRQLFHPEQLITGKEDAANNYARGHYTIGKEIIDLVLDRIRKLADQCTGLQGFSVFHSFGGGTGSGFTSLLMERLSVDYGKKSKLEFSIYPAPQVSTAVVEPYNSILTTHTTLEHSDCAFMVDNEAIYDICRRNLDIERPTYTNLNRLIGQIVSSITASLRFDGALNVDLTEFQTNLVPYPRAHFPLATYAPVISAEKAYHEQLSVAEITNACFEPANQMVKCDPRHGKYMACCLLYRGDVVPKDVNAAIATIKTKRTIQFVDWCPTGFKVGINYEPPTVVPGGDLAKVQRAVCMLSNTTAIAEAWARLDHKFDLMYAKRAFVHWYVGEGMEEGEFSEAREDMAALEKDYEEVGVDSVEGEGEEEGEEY
tubulin, sequence (P02554 whole entry, further chain): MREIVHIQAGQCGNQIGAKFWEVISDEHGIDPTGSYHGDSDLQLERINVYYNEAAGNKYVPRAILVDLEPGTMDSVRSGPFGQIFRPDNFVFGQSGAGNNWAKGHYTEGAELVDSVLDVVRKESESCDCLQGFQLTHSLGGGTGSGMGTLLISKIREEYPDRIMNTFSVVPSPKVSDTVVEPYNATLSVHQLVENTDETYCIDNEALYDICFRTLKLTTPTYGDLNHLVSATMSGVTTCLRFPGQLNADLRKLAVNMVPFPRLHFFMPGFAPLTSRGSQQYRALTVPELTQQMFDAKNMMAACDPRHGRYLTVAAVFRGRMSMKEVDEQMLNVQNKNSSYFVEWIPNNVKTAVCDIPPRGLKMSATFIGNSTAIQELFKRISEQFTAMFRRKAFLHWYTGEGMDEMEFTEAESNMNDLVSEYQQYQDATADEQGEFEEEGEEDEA

| IC50 ([3]; 72 h) [µM] | SMILES | IC50 (human recombinant HDAC6) [µM] | Selectivity index HDAC6/1 (human recombinant HDAC6) | Selectivity index HDAC6/2 (human recombinant HDAC6) | melting point [°C] | IC50 (human recombinant HDAC2) [µM] | IC50 [1] [µM] | IC50 (human recombinant HDAC1) [µM] | IC50 [2] [µM] | IC50 ([3]; CCK-8, 72 hours, mean ± SD) [µM] | IC50 [4] [µM] | IC50 (healthy MCF-10A cells) [µM] | IC50 (liver cancer cells HepG2) [µM] | fold reduced potency anti-HDAC6 relative to 9c (human recombinant HDAC6; [5]) | fold reduced potency anti-HDAC2 relative to 9c (human recombinant HDAC2; [5]) | fold reduced potency anti-HDAC1 relative to 9c (human recombinant HDAC1; [5]) | toxicity to healthy MCF-10A cells (healthy MCF-10A cells; in words) | toxicity to healthy VERO cells (healthy MCF-10A cells; in words, conclusions) | tubulin polymerization inhibition compared with reference compound (tubulin) |
| --- | --- | --- | --- | --- | --- | --- | --- | --- | --- | --- | --- | --- | --- | --- | --- | --- | --- | --- | --- |
|  | C[C@H]1COc2c(N3CCN(C)CC3)c(F)cc3c(=O)c(C(=O)NCc4cn(CCCCCCCC(=O)O)nn4)cn1c23 [Compound 7c, (S)-8-(4-((9-fluoro-3-methyl-10-(4-methylpiperazin-1-yl)-7-oxo-3,7-dihydro-2H-[1,4]oxazino[2,3,4-ij]quinoline-6-carboxamido)methyl)-1H-1,2,3-triazol-1-yl)octanoic acid] | 2.7 ± 0.36 | 1.4 | 2.6 | 203 to 205 | 6.9 ± 0.55 | 12.7 ± 1.18 | 3.8 ± 0.46 | 13.6 ± 1.29 | 10.6 ± 0.24 | 11.9 ± 1.06 | > 100 | 11.3 ± 1.24 |  |  |  |  |  |  |
|  | C[C@H]1COc2c(N3CCN(C)CC3)c(F)cc3c(=O)c(C(=O)OCc4cn(CCCCCCCC(=O)O)nn4)cn1c23 [Compound 6c, (S)-8-(4-(((9-fluoro-3-methyl-10-(4-methylpiperazin-1-yl)-7-oxo-3,7-dihydro-2H-[1,4]oxazino[2,3,4-ij]quinoline-6-carbonyl)oxy)methyl)-1H-1,2,3-triazol-1-yl)octanoic acid] | 4.7 ± 0.51 | 1.5 | 1.7 | 196 to 199 | 7.9 ± 0.76 | 10.5 ± 1.22 | 6.9 ± 0.83 | 15.8 ± 1.43 | 14.6 ± 1.08 | 13.6 ± 1.16 | > 100 | 12.7 ± 1.09 |  |  |  |  |  |  |
|  | C[C@H]1COc2c(N3CCN(C)CC3)c(F)cc3c(=O)c(C(=O)NCc4cn(CCCCCC(=O)O)nn4)cn1c23 [Compound 7a, (S)-6-(4-((9-fluoro-3-methyl-10-(4-methylpiperazin-1-yl)-7-oxo-3,7-dihydro-2H-[1,4]oxazino[2,3,4-ij]quinoline-6-carboxamido)methyl)-1H-1,2,3-triazol-1-yl)hexanoic acid] | 1.9 ± 0.47 | 2.4 | 3.8 | 179 to 182 | 7.3 ± 0.93 | 9.7 ± 1.04 | 4.6 ± 0.52 | 15.8 ± 1.48 | 13.5 ± 1.31 | 12.8 ± 1.33 | > 100 | 14.8 ± 1.27 |  |  |  |  |  |  |
|  | C[C@H]1COc2c(N3CCN(C)CC3)c(F)cc3c(=O)c(C(=O)OCc4cn(CCCCCCCC(=O)NO)nn4)cn1c23 [Compound 8c, (S)-(1-(8-(hydroxyamino)-8-oxooctyl)-1H-1,2,3-triazol-4-yl)methyl-9-fluoro-3-methyl-10-(4-methylpiperazin-1-yl)-7-oxo-3,7-dihydro-2H-[1,4]oxazino[2,3,4-ij]quinoline-6-carboxylate] | 0.052 ± 0.026 | 2.0 | 1.3 |  | 0.065 ± 0.016 | 2.3 ± 0.27 | 0.104 ± 0.053 | 10.4 ± 1.13 | 6.8 ± 0.56 | 7.4 ± 0.44 | > 100 | 5.7 ± 0.49 | at least 2 fold | at least 2 fold | at least 2 fold |  |  |  |
| 2.9 ± 0.18 | O=C(CCCCCCC(=O)Nc1ccccc1)NO [SAHA, vorinostat, reference compound] |  |  |  |  |  |  |  |  |  |  |  |  |  |  |  | considerable toxicity | some extent inherent toxicity |  |
|  | C[C@H]1COc2c(N3CCN(C)CC3)c(F)cc3c(=O)c(C(=O)OCc4cn(CCCCCC(=O)O)nn4)cn1c23 [Compound 6a, (S)-6-(4-(((9-fluoro-3-methyl-10-(4-methylpiperazin-1-yl)-7-oxo-3,7-dihydro-2H-[1,4]oxazino[2,3,4-ij]quinoline-6-carbonyl)oxy)methyl)-1H-1,2,3-triazol-1-yl)hexanoic acid] | 2.1 ± 0.68 | 3.9 | 4.9 | 175 to 178 | 10.4 ± 1.87 | 10.3 ± 1.12 | 8.2 ± 1.08 | 16.5 ± 1.63 | 12.3 ± 1.16 | 14.2 ± 1.28 | > 100 | 13.4 ± 1.36 |  |  |  |  |  |  |
|  | C[C@H]1COc2c(N3CCN(C)CC3)c(F)cc3c(=O)c(C(=O)NCc4cn(CCCCCC(=O)NO)nn4)cn1c23 [Compound 9a, (S)-9-Fluoro-N-((1-(6-(hydroxyamino)-6-oxohexyl)-1H-1,2,3-triazol-4-yl)methyl)-3-methyl-10-(4-methylpiperazin-1-yl)-7-oxo-3,7-dihydro-2H-[1,4]oxazino[2,3,4-ij]quinoline-6-carboxamide] | 0.049 ± 0.023 | 1.5 | 1.7 |  |  | 1.1 ± 0.26 | 0.073 ± 0.045 | 9.6 ± 1.05 | 5.2 ± 0.82 | 5.6 ± 0.59 | > 100 | 6.6 ± 0.78 |  |  |  |  |  | equipotent to reference compound CA-4 |
|  | C[C@H]1COc2c(N3CCN(C)CC3)c(F)cc3c(=O)c(C(=O)OCc4cn(CCCCCC(=O)NO)nn4)cn1c23 [Compound 8a, (S)-(1-(6-(hydroxyamino)-6-oxohexyl)-1H-1,2,3-triazol-4-yl)methyl-9-fluoro-3-methyl-10-(4-methylpiperazin-1-yl)-7-oxo-3,7-dihydro-2H-[1,4]oxazino[2,3,4-ij]quinoline-6-carboxylate] | 0.043 ± 0.053 | 1.7 | 3.1 |  | 0.134 ± 0.049 | 3.5 ± 0.51 | 0.075 ± 0.031 | 12.8 ± 1.42 | 7.7 ± 0.64 | 8.9 ± 0.72 | > 100 | 9.8 ± 0.87 |  |  |  |  |  |  |
|  | C[C@H]1COc2c(N3CCN(C)CC3)c(F)cc3c(=O)c(C(=O)NCc4cn(CCCCCCCC(=O)NO)nn4)cn1c23 [Compound 9c, (S)-9-Fluoro-N-((1-(8-(hydroxyamino)-8-oxooctyl)-1H-1,2,3-triazol-4-yl)methyl)-3-methyl-10-(4-methylpiperazin-1-yl)-7-oxo-3,7-dihydro-2H-[1,4]oxazino[2,3,4-ij]quinoline-6-carboxamide] | 0.041 ± 0.025 | 0.9 | 1.9 |  | 0.076 ± 0.022 | 1.1 ± 0.23 | 0.038 ± 0.014 | 8.7 ± 0.62 | 3.5 ± 0.24 | 4.2 ± 0.38 | > 100 | 3.6 ± 0.55 |  |  |  |  |  |  |
|  | C[C@H]1COc2c(N3CCN(C)CC3)c(F)cc3c(=O)c(C(=O)OCc4cn(CCCCCCC(=O)O)nn4)cn1c23 [Compound 6b, (S)-7-(4-(((9-fluoro-3-methyl-10-(4-methylpiperazin-1-yl)-7-oxo-3,7-dihydro-2H-[1,4]oxazino[2,3,4-ij]quinoline-6-carbonyl)oxy)methyl)-1H-1,2,3-triazol-1-yl)heptanoic acid] | 1.4 ± 0.35 | 4.1 | 4.4 | 183 to 185 | 6.2 ± 0.92 | 8.9 ± 0.54 | 5.7 ± 0.71 | 12.9 ± 1.25 | 9.7 ± 0.83 | 10.7 ± 1.08 | > 100 | 10.5 ± 1.17 |  |  |  |  |  |  |
